From PMC3462190, “A Peptidic Unconjugated GRP78/BiP Ligand Modulates the Unfolded Protein Response and Induces Prostate Cancer Cell Death” (PLoS ONE, 2012)
Where no end group is shown, it is not given here.

B1: Bag-1: cochaperone Bag-1, HA-tagged (pcDNA3.1-HA-Bag-1), or endogenous (protein)
chain: TPLSALGIQDGCRVMLIGKKNSPQEEVELKKLKHLEKSVEKIADQLEELNKELTGIQQGFLPKDLQAE
modifications: left off: HA, end not stated, kept
notes: cochaperone Bag-1, HA-tagged (pcDNA3.1-HA-Bag-1), or endogenous
B2: Bag-1 peptide: internal sequence of 68 amino acids of Bag-1 (Bag1-L 202–269), HA-tagged, expressed from pcDNA3 (peptide)
chain: TPLSALGIQDGCRVMLIGKKNSPQEEVELKKLKHLEKSVEKIADQLEELNKELTGIQQGFLPKDLQAE
modifications: also: HA tag, end not given here

Tests used:
GRP78/BiP = assay: GST pull-down with GRP78/BiP; assay type: binding; conditions: for interaction with GRP78/BiP: GST-fused protein/peptide, 22Rv.1 cell lysate, Western blot
Description: (§1) Expression of GST fusion proteins for GST-pull-down experiments were performed essentially as described previously.
(§2) Figure 1 Bag-1 proteins interact with the molecular chaperone GRP78/BiP. A. The Bag-1 family of proteins binds GRP78/BiP. GST pull-down assay was performed incubating 5 µg each of GST-fused Bag-1 proteins with 400 µg of 22Rv.1 cell lysate. Western blotting with a specific antibodiy against GRP78/BiP was used to detect the binding and an anti-GST antibody was used to determine the amount of bacterially purified protein employed in the assay. B. Bag-1 and GRP78 interact in vivo. GRP78 was immunoprecipitated with an anti-GRP78/BiP antibody or IgG as control in 22Rv.1 cells. Western blotting with an anti-Bag-1 and anti-GRP78 antibody was performed to determine GRP78-Bag-1 interaction. C. Bag-1 and GRP78/BiP show a perinuclear colocalization. Confocal microscopic analyses were carried out in 22Rv.1 cells that have been paraformaldehyde-fixed and stained with a Bag-1 antibody to detect Bag-1 (green channel) and a GRP78/BiP specific antibody to detect GRP78/BiP (red channel). The orange staining in the merge of the two channels indicates the degree of co-localization of the two proteins. All images (40X) were acquired with a Leica TCS SPE confocal microscope (Leica Microsystems; Scale bars indicate 25 µm). D. Diagrammatic representation of the domains of GRP78. E. Bag-1 binds to multiple sites on GRP78. GST-pull down assay performed incubating 500 µg lysate of HEK-293 cells transfected with an HA-tagged Bag-1 and 10 µg GST-fused GRP78 full length and its ATPase and substrate binding domain (SBD). Western blot analysis was carried out using an HA antibody to detect the Bag-1-tagged protein.
Figure 5 An N-terminal unfolded fragment of the Bag-1 peptide is sufficient to reduce tumor cell growth. A. Schematic diagram of the Bag-1 peptide and its deletion mutants. The ubiquitin-like domain is represented in blue and the BAG domain in red. The numbers refer to the amino acid positions of the different domains. The amino acid residues are numbered following the numbering for Bag-1L. B. Prediction of the secondary structure of the Bag-1 peptide, showing an N-terminal β-hairpin from the ubiquitin-like domain (blue) and a C-terminal α-helix from the BAG domain (red). C. Normalized circular dichroism spectra of the Bag-1 peptides. 30 µM of the Bag-1 peptide were measured in 20 mM KHPO4 buffer, pH 6.8 (black line). […] 12 µM of the N-term peptide (green line) and 11 µM of C-term (blue line) were measured under the same conditions. […] Cells transfected with the indicated constructs were selected in medium containing neomycin and the colonies formed were quantified. […] Tumor size was measured once per week using a caliper and expressed as tumor volume in mm^3. […]

SBD of GRP78/BiP = assay: GST pull-down with substrate binding domain (SBD) of GRP78/BiP; conditions: 10 µg GST-GRP78(SBD), 500 µg (N-terminal peptide: 100 µg) lysate of HEK-293 cells expressing HA-tagged construct
Description: as §1, §2
Figure 2 Identification of Bag-1 peptide interfering with the action of GRP78/BiP. […] Depicted in blue and red are the ubiquitin-like domain and the BAG domain respectively. B. Identification of the Bag-1 peptide binding to GRP78/BiP. GST-pull down assay performed incubating 500 µg lysates from HEK-293 cells transfected with the indicated Bag-1 constructs and 10 µg of GST-GRP78(SBD) or GST as control. Western blot analysis with an HA antibody to detected the Bag-1 mutants is shown. […] C. The Bag-1 68 amino acid peptide binds in vivo to GRP78. HEK 293 cells were co-transfected with pcDNA-HA-tagged Bag-1 peptide. […] Thereafter luciferase activity was measured. Results are expressed as percentage of refolding activity relative to non-heat-shocked cells and presented as bar charts of the average of three independent experiments ± SEM. *p<0.05. […]

Molecule | interaction with GRP78/BiP (GRP78/BiP) | interaction with SBD of GRP78/BiP (SBD of GRP78/BiP) | other results
ΔUbi peptide: Bag-1 peptide lacking the ubiquitin-like domain portion (Bag-1L 220–269) (KKNSPQEEVELKKLKHLEKSVEKIADQLEELNKELTGIQQGFLPKDLQAE; not fully specified) | abrogated the binding to GRP78 | – | –
C-terminal peptide: 28 C-terminal fragment of the Bag-1 peptide (Bag-1L 241–269) (EKIADQLEELNKELTGIQQGFLPKDLQAE; not fully specified) | not the C-terminal peptide bound to GRP78/BiP | – | –
N-terminal peptide: N-terminal 40 residues of the Bag-1 peptide (Bag-1L 202–241) (TPLSALGIQDGCRVMLIGKKNSPQEEVELKKLKHLEKSVE; not fully specified) | bound to GRP78/BiP | interacted preferentially with the SBD | –
B1 | – | interacted not only with the full length GRP78/BiP but also with its ATPase and SBD | interaction with full length GRP78/BiP (GRP78/BiP; 10 µg GST-fused GRP78 full length, lysate of HEK-293 cells expressing HA-tagged Bag-1): interacted not only with the full length GRP78/BiP
B2 | – | – | interaction with SBD of GRP78/BiP (SBD of GRP78/BiP; listed as 68 amino acid sequence): required for binding the SBD of GRP78/BiP; interaction with SBD of GRP78/BiP (SBD of GRP78/BiP; listed as full length 68 amino acid peptide): interacted with both the SBD and ATPase binding domains of GRP78
